From ChEMBL document CHEMBL1667813, “Difluoroethylamines as an amide isostere in inhibitors of cathepsin K” (Bioorg Med Chem Lett, 2011)

Assays:
Homo sapiens [1] = organism: Homo sapiens; assay: Selectivity ratio of IC50 for human cathepsin L to IC50 for human cathepsin K
[2] = Ratio of product of IC50 for rabbit bone resorption and IC50 for humanized rabbit cathepsin K to IC50 for rabbit cathepsin K
Homo sapiens [3] = organism: Homo sapiens; assay: Selectivity ratio of IC50 for human cathepsin F to IC50 for human cathepsin K
Homo sapiens [4] = organism: Homo sapiens; assay: Selectivity ratio of IC50 for human cathepsin B to IC50 for human cathepsin K
Cathepsin K = Cathepsin K (Homo sapiens, UniProt P43235); assay: Inhibition of humanized rabbit cathepsin K
Homo sapiens [5] = organism: Homo sapiens; assay: Selectivity ratio of IC50 for human cathepsin S to IC50 for human cathepsin K
[6] = Aqueous equilibrium solubility of the compound in water; type: physicochemical
[7] = Lipophilicity, log D of the compound; type: physicochemical; settings: octanol/water
[8] = Oral bioavailability in rat at 2 mg/kg, iv; type: ADME, organism-based; settings: in vivo
[9] = Half life in rat at 10 mg/kg, po or 2 mg/kg, iv; type: ADME, organism-based; settings: in vivo
[10] = Dissociation constant, pKa of the compound; type: physicochemical
[11] = Oral bioavailability in dog at 1 mg/kg, iv; type: ADME, organism-based, Canis lupus familiaris; settings: in vivo
[12] = Half life in dog at 5 mg/kg, po or 1 mg/kg, iv; type: ADME, organism-based, Canis lupus familiaris; settings: in vivo

Row | Ratio IC50 (Homo sapiens [1]) | IC50 [2] | Ratio IC50 (Homo sapiens [3]) | Ratio IC50 (Homo sapiens [4]) | IC50 (Cathepsin K) | Ratio IC50 (Homo sapiens [5]) | solubility thermodynamic [6] | logD [7] | bioavailability [8] | half-life [9] | pKa [10] | bioavailability [11] | half-life [12] | Structure (SMILES)
1 | 1390 | 3 nM | 370 | 23600 | 0.3 nM | 809 | < 10 µg/mL | 3.53 | 4% | 2.6 h | < 2 |  |  | CC(C)C[C@H](N[C@@H](c1ccc(-c2ccc(S(C)(=O)=O)cc2)cc1)C(F)(F)F)C(=O)NC1(C#N)CC1
2 | 894 | 10 nM | 645 | > 11900 | 0.8 nM | 1140 | < 10 µg/mL | 0.11 | 100% | 0.8 h | 2.7 |  |  | CC(C)C[C@H](N[C@@H](c1ccc(-c2ccc(S(C)(=O)=O)cc2)cc1)C(F)F)C(=O)NC1(C#N)CC1
3 | 6330 | 9 nM | 1920 | 2300 | 1 nM | 210 |  |  | 22% | 3.8 h |  | 23% | 35 h | CC(C)(F)C[C@H](N[C@@H](c1ccc(-c2ccc(S(C)(=O)=O)cc2)cc1)C(F)F)C(=O)NC1(C#N)CC1

The next lines start with the compound.

Row | Structure (SMILES) | Ratio IC50 (Homo sapiens [1]) | IC50 [2] | Ratio IC50 (Homo sapiens [3]) | Ratio IC50 (Homo sapiens [4]) | IC50 (Cathepsin K) | Ratio IC50 (Homo sapiens [5]) | solubility thermodynamic [6] | logD [7] | bioavailability [8] | half-life [9] | pKa [10] | bioavailability [11] | half-life [12]
4 | CC(C)(F)C[C@H](N[C@@H](c1ccc(-c2ccc(C3(C(N)=O)CC3)cc2F)cc1)C(F)F)C(=O)NC1(C#N)CC1 | 12700 | 4 nM | 2340 | 7230 | 0.3 nM | 2880 |  |  |  |  |  |  | 
5 | CC(C)C[C@H](N[C@@H](c1ccc(-c2ccc(C(O)C(F)(F)F)cc2)cc1)C(F)F)C(=O)NC1(C#N)CC1 (stereo not given in full) | 785 | 32 nM | 126 | > 5180 | 1.9 nM | 813 |  |  |  |  |  |  | 
6 | CC(C)(F)C[C@H](N[C@@H](c1ccc(-c2ccc(S(C)(=O)=O)cc2)cc1)C(F)(F)F)C(=O)NC1(C#N)CC1 [ODANACATIB] | 15000 | 5 nM | 3980 | 5170 | 0.2 nM | 300 |  |  | 8% |  |  | 6% | 
7 | CC(C)C[C@H](N[C@@H](c1ccc(-c2ccc(S(C)(=O)=O)cc2)cc1)C(F)(F)F)C(=O)NCC#N | 1320 | 3 nM | 480 | 26200 | 0.2 nM | 890 |  |  |  |  |  |  | 
8 | CC(C)C[C@H](N[C@@H](c1ccc(-c2ccc(C(O)C(F)(F)F)cc2)cc1)C(F)(F)F)C(=O)NC1(C#N)CC1 (stereo not given in full) | 506 | 21 nM |  | 5980 | 1.6 nM | 311 |  |  |  |  |  |  | 
9 | CC(C)(F)C[C@H](N[C@@H](c1ccc(-c2ccc(C3(C(N)=O)CC3)cc2F)cc1)C(F)(F)F)C(=O)NC1(C#N)CC1 | 9370 | 2 nM | 1380 | 4400 | 0.3 nM | 1200 |  |  |  |  |  |  | 
10 | CC(C)C[C@H](N[C@@H](c1ccc(-c2ccc(S(C)(=O)=O)cc2)cc1)C(F)F)C(=O)NCC#N | 869 | 15 nM | 822 | > 32600 | 0.3 nM | 2000 |  |  |  |  |  |  | 
